Experimental data from patent US5609749A, “Electrochemical assay method with novel p-phenylenediamine compound” (Mochida Pharmaceutical Co., Ltd., priority 1993, dated 1997).
Structures can show the parent of a compound that is named as a salt.

Tests used:
[1] = Dry chemistry type chips: filter paper impregnated with mediator solution and dried on an electrode; settings: mediator dried on cellulose or glass filter paper, dissolved by liquid sample
Source text: In addition, the present inventors have attempted to prepare a dry chemistry type chips by impregnating a piece of cellulose filter paper or glass filter paper with a solution of HQ, PPD, TMPD or TEPD and drying the resulting piece on an electrode (by freeze-drying, vacuum drying, air-drying or the like) or arranging it on an electrode after drying so that the impregnated electron mediator can dissolve in a liquid sample at the time of measurement.

[2] = target: T1, Glucose oxidase (GOD) (Aspergillus niger, UniProt P13006); experiment: Electron transfer activity 1: GOD-glucose-compound, current at +300 mV; type: biochemical; settings: +300 mV vs Ag/AgCl, pH 6.0
T1 construct: purchased Boehringer-Mannheim
T1 sequence (P13006 17-605): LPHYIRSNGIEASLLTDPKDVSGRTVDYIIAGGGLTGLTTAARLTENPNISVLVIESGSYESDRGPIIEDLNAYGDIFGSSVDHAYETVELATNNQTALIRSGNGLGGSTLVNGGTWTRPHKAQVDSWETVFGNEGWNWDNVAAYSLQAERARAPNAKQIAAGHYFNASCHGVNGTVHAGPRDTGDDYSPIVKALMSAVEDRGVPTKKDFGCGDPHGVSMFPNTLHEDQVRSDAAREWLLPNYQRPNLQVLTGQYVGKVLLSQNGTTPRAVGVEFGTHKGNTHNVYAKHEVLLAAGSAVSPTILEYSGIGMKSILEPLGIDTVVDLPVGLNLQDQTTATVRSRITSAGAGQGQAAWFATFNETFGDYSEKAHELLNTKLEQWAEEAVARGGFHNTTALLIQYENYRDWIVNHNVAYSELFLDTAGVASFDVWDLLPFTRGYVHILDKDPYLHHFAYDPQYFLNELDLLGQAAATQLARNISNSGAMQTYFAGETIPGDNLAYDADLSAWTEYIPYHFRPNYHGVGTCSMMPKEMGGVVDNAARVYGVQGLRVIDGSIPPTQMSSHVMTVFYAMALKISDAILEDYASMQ
Experimental: Measurement of electron transfer activities of TEPD, TCPD, THEPD, TDHPD, HTEPD, N,N'-BHPD, N,N-BHDPD, N,N'-BHDPD, and p-phenylenediamine derivatives having substituted amino group by reacting p-phenylenediamine with propyleneoxide--1
Glucose oxidase (GOD, manufactured by Boehringer-Mannheim) was dissolved in 0.1M phosphate buffer (pH 6.0) containing 0.1M NaCl to prepare 0M and 4.0×10^-4 M GOD solutions. Also, glucose (manufactured by Junsei Kagaku) was dissolved in the same buffer to prepare a 1.5M solution. In the same manner, each of the TEPD, TCPD, THEPD, TDHPD, HTEPD, N,N-BHDPD, N,N'-BHPD, N,N'-BHDPD, and p-phenylenediamine derivatives having substituted amino group by reacting p-phenylenediamine with propyleneoxide obtained in Synthesis Examples 1 to 9 was dissolved in the same buffer to prepare a 5.0×10^-3 M solution.
(§1) Each of these solutions was mixed in 0.1M phosphate buffer (pH 6.0) containing 0.1M NaCl in the following mixing ratio just before the measurement to prepare solutions of the following compositions A and B, and current was measured continuously in the presence (composition A) or absence (composition B) of GOD.
Using the same apparatus of Test Example 2, electric current was measured in the presence (composition A) or absence (composition B) of GOD for 10 minutes under application of potential of +300 mV (vs Ag/AgCl) to the working electrode.

[3] = target: T2, Horseradish peroxidase (HRPO) (Armoracia rusticana, UniProt P00433); experiment: Electron transfer activity 2: HRPO-hydrogen peroxide-compound, current at -80 mV or -150 mV; type: biochemical; settings: -80 mV or -150 mV vs Ag/AgCl, pH 6.0
T2 construct: purchased TOYOBO
T2 sequence (P00433 31-338 limits assumed): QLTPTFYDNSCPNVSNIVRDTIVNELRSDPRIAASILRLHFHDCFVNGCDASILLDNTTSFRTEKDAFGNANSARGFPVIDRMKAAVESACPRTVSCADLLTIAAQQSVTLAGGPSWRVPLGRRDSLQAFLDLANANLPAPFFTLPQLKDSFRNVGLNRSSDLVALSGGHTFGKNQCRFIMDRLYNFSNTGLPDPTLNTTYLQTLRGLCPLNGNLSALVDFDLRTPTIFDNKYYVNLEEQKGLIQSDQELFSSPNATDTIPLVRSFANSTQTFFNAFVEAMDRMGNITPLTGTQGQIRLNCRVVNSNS
Experimental: Measurement of electron transfer activities of TCPD, THEPD, TDHPD, HTEPD, N,N-BHDPD, N,N'-BHPD, N,N'-BHDPD, and p-phenylenediamine derivatives having substituted amino group by reacting p-phenylenediamine with propyleneoxide--2
Horseradish peroxidase (HRPO, manufactured by TOYOBO) was dissolved in 0.1M phosphate buffer (pH 6.0) containing 0.1M NaCl to prepare 0M and 5.0×10^-7 M HRPO solutions. Also, hydrogen peroxide (manufactured by Wako Pure Chemical Industries) was dissolved in the same buffer to prepare a 1.0×10^-1 M solution. In the same manner, each of the TCPD, THEPD, TDHPD, HTEPD, N,N-BHDPD, N,N'-BHPD, N,N'-BHDPD, and p-phenylenediamine derivatives having substituted amino group by reacting p-phenylenediamine with propyleneoxide obtained in Synthesis Examples 1 to 9 was dissolved in the same buffer to prepare a 5.0×10^-3 M solution.
as §1, with “B, and electric current was” for “B, and current was”, “B) of HRPO.” for “B) of GOD.”
Using the same apparatus of Test Example 2, electric current was measured in the presence (composition A) or absence (composition B) of HRPO for 5 or 10 minutes after application of potential of -80 mV (vs Ag/AgCl, the same shall apply hereinafter) in the case of TEPD, THEPD, and TDHPD, or -150 mV in the case of TCPD, HTEPD, N,N-BHDPD, N,N'-BHPD, N,N'-BHDPD, and p-phenylenediamine derivatives having substituted amino group by reacting p-phenylenediamine with propyleneoxide.

[4] = Current response of electron mediators in buffer solution and in the presence of blood, urine; settings: for current response: in a buffer solution; for response in the presence of blood, urine and the like: interfering substances in blood
Source text: (§2) Of these oxidation-reduction enzymes, glucose oxidase (GOD) is used in enzyme electrodes for the measurement of blood glucose level and horseradish peroxidase (HRPO) is used as a label enzyme in specific binding assays such as DNA hybridization, immunoassay and the like. […] However, these electron mediators were not able to show stable and reproducible response in the presence of blood, urine and the like because of the interfering substances contained therein.

[5] = Measurement of vapor pressures (gas flow method); type: physicochemical; settings: for vapor pressure lower than that of TEPD / vapor pressure: at 25° C.; for vapor pressure: gas flow method; for property in drying (freeze-drying, vacuum drying, air-drying) and stability of dried states: compared with PPD, TMPD and TEPD, concluded from vapor pressures
Experimental: Measurement of vapor pressures of p-phenylenediamine(PPD), N,N,N',N'-tetramethyl-p-phenylenediamine (TMPD), TEPD, TCPD, THEPD and TDHPD
The PPD(manufactured by Wakoh Junyaku K.K), TMPD (manufactured by Tokyo Kasei K.K), further, TEPD, TCPD, THEPD and TDHPO obtained in the course of the procedures of Synthesis Examples 1 to 4 were checked for their vapor pressures.
Vapor densities (amount of evaporation/volume) of the solid samples (PPD, TMPD, TEPD, TCPD, THEPD and TDHPD) were measured by contacting each sample heated to a predetermined temperature with a stream of carrier gas (nitrogen) and saturating the sample with vapor, and vapor pressures of TEPD and THEPD were calculated from the data on an assumption that the vapor follows the law of ideal gas (gas flow method). The vapor density was calculated by measuring evaporation rate (loss rate) of each sample using an electric balance, and the carrier gas flow rate using a flow meter.
The vapor pressure was calculated from the vapor density based on the following formula.
In the above formula, P represents vapor pressure (mmHg), k represents evaporation rate (mg/min), v represents carrier gas flow rate (ml/min), k/v represents vapor density (mg/ml), M represents molecular weight of each sample, π represents pressure of the system (mmHg) and V represents molar volume of carrier gas (l/mol).

[6] = target: T3, horseradish peroxidase (Armoracia rusticana, UniProt P00433); experiment: Current response in a buffer with electron mediator (inventors' experiments); type: biochemical; settings: compared with conventional electron mediators (ferrocene derivatives, inorganic ions, metal complexes)
T3 sequence (P00433 31-338 limits assumed): T2 sequence (P00433 31-338 limits assumed)
Source text: as §2

[7] = target: glucose oxidase (Aspergillus niger, UniProt P13006); experiment: as above; type: biochemical; settings: compared with conventional electron mediators (ferrocene derivatives, inorganic ions, metal complexes)
glucose oxidase, sequence (P13006 17-605): as the sequence (P13006 17-605) above
Source text: as §2

Compound: Oc1ccc(O)cc1 [HQ, hydroquinone]
- current response and characteristics of dry chemistry type chips [1]: low current response and extremely poor characteristics

Compound: CCN(CC)c1ccc(N(CC)CCO)cc1 [HTEPD, N-2'-hydroxyethyl-,N,N',N'-triethyl-p-phenylenediamine dihydrochloride]
- function as electron mediator between GOD and the electrode [2]: function as a reversible electron mediator between GOD and the electrode
- function as electron mediator between HRPO and the electrode [3]: function as a reversible electron mediator between HRPO and the electrode

Compound: CCN(CCO)c1ccc(N(CC)CCO)cc1.Cl.Cl [N,N'-BHDPD, N,N'-bis-(2'-hydroxyethyl)-N,N'-diethyl-p-phenylenediamine dihydrochloride]
- function as electron mediator between GOD and the electrode [2]: function as a reversible electron mediator between GOD and the electrode
- function as electron mediator between HRPO and the electrode [3]: function as a reversible electron mediator between HRPO and the electrode

Compound: OCCNc1ccc(NCCO)cc1 [N,N'-BHPD, N,N'-bis-(2'-hydroxyethyl)-p-phenylenediamine]
- function as electron mediator between GOD and the electrode [2]: function as a reversible electron mediator between GOD and the electrode
- function as electron mediator between HRPO and the electrode [3]: function as a reversible electron mediator between HRPO and the electrode

Compound: CCN(CC)c1ccc(N(CCO)CCO)cc1.Cl.Cl [N,N-BHDPD, N,N-bis-(2'-hydroxyethyl)-N',N'-diethyl-p-phenylenediamine dihydrochloride]
- function as electron mediator between GOD and the electrode [2]: function as a reversible electron mediator between GOD and the electrode
- function as electron mediator between HRPO and the electrode [3]: function as a reversible electron mediator between HRPO and the electrode

Compound: Nc1ccc(N)cc1 [PPD, p-phenylenediamine]
- current response [4]: excellent current response
- response in the presence of blood, urine and the like [4]: interference
- current response and characteristics of dry chemistry type chips [1]: low current response and extremely poor characteristics

Compound: O=C(O)CN(CC(=O)O)c1ccc(N(CC(=O)O)CC(=O)O)cc1 [TCPD, N,N,N',N'-tetrakiscarboxymethyl-p-phenylenediamine]
- function as electron mediator between GOD and the electrode [2]: function as a reversible electron mediator between GOD and the electrode
- vapor pressure lower than that of TEPD [5]: about 50,000 times
- vapor pressure [5]: 8.7×10^-9 mmHg
- property in drying (freeze-drying, vacuum drying, air-drying) and stability of dried states [5]: superior to those of PPD, TMPD and TEPD
- function as electron mediator between HRPO and the electrode [3]: function as a reversible electron mediator between HRPO and the electrode

Compound: Cl.Cl.OCC(O)CN(CC(O)CO)c1ccc(N(CC(O)CO)CC(O)CO)cc1 (stereo not drawn) [TDHPD, N,N,N',N'-tetrakis-(2',3'-dihydroxypropyl)-p-phenylenediamine dihydrochloride]
- function as electron mediator between GOD and the electrode [2]: function as a reversible electron mediator between GOD and the electrode
- vapor pressure lower than that of TEPD [5]: about 420,000 times
- vapor pressure [5]: 1.0×10^-9 mmHg
- property in drying (freeze-drying, vacuum drying, air-drying) and stability of dried states [5]: superior to those of PPD, TMPD and TEPD
- function as electron mediator between HRPO and the electrode [3]: function as a reversible electron mediator between HRPO and the electrode

Compound: CN(C)c1ccc(N(C)C)cc1 [TMPD, N,N,N',N'-tetramethyl-p-phenylenediamine]
- current response [4]: excellent current response
- response in the presence of blood, urine and the like [4]: interference
- current response and characteristics of dry chemistry type chips [1]: low current response and extremely poor characteristics

Compound: hydroquinone (HQ)/benzoquinone (BQ)
- current response [6]: superior current response
- current response [7]: superior current response
